Measured values from publication PMC3758034, “New Insight into the SAR of Pyrimido [4,5-b][1,4] Benzothiazines as 15-lipoxygenase Inhibitors” (Iranian Journal of Basic Medical Sciences, 2013).

Target: soybean 15-lipoxygenase (SLO) (Glycine max, UniProt P08170)
Assay: SLO screening assay (spectrophotometric MBTH-DMAB peroxide formation method, 598 nm)
Type: biochemical
Conditions: pH = 8.3 versus pH = 7.0
Experimental: Linoleic acid and two assay solutions (A and B) were prepared in advance. Solution A was 50 mM DMAB in a l00 mM phosphate buffer (pH 7.0). Solution B was a mixture of l0 mM MBTH (3 mL), hemoglobin (5 mg/mL, 3 mL) in 50 mM phosphate buffer at pH 5.0 (25 mL). A linoleic acid solution was prepared by mixing 5 mg of linoleic acid with 0.5 mL ethanol and then diluting with KOH 100 mM to a final volume of 5 mL. […] A control test was done with the same volume of ethanol. After the pre-incubation, linoleic acid solution (50 µL) was added to start the peroxidation reaction, and, 7 min later, solution A (270 µL) and then solution B (130 µL) was added to start the color formation. 5 min later, 200 µL of a 2% SDS solution was added to terminate the reaction. The absorbance at 598 nm was compared with control test. The IC50 results are outlined in Table 1.
It is interesting to note that the aforementioned amino acids with the exception of Val769 and Phe576 are conserved ([18], [19]). […] The inhibitory activity of compounds 1a-f, 2a-f towards SLO enzyme was determined by measuring the amount of peroxide formation. In this method, with the help of a spectrophotometer and by using a mixture of MBTH (3-methyl-2-benzothiazolonhydrazone) and DMAB (3-dimethylaminobenzoic acid) indicators in the presence of hemoglobin at the wavelength of 598 nm, the peroxide concentration was determined ([16]).

Chain of soybean 15-lipoxygenase (SLO) (P08170 whole entry): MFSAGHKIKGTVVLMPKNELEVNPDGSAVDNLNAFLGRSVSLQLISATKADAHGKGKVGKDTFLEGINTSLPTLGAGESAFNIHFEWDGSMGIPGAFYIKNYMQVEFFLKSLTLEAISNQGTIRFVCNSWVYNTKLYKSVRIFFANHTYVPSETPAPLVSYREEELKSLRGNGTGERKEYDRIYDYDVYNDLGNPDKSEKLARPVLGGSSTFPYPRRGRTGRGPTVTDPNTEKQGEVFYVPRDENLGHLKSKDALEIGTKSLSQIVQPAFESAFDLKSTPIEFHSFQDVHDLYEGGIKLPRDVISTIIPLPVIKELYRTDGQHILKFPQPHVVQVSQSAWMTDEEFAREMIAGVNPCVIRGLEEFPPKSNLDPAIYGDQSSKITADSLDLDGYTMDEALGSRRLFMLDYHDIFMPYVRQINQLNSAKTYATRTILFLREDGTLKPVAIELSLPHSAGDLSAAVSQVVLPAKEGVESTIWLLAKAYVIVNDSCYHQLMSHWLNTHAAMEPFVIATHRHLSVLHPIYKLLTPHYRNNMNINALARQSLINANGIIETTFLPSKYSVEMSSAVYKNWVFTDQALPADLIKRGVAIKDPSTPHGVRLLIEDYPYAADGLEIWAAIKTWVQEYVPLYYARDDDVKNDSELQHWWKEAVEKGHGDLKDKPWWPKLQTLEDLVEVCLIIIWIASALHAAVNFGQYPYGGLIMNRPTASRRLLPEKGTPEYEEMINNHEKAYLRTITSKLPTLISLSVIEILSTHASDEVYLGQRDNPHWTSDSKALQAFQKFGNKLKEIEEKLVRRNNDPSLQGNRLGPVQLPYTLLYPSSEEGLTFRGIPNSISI

Compound	IC50 at higher pH
CC1CCN(c2ncc3c(n2)Sc2ccccc2N3)CC1 [1c]	nearly unchanged
Cc1nc(N2CCC(C)CC2)nc2c1Nc1ccccc1S2 [2c]	nearly unchanged
